Here are results for one compound from patent US20240269128A1, “COMPOUNDS FOR TREATING OR PREVENTING ALZHEIMER'S DISEASE” (THE UNITED STATES OF AMERICA, as represented by the …, priority 2021, published 2024).

Series [1] has as its system microglia isolated from 5xFAD mice. The series can be described thus: LPS-induced neuroinflammation on MACS isolated 5xFAD microglia. It is filed as cell-based, mouse. Here is the method:
MACS microglia isolation and cultivation: Adult microglia were isolated from 9 months old 5xFAD mice via magnetic cell sorting (MACS). The mice were terminally anesthetized by i.p. injection of Pentobarbital (600 mg/kg, dosing 10 μL/g body weight) and brains were transcardially perfused with DPBS. Brains were removed, the brainstem discarded and the remaining brain minced for cell dissociation. Cell dissociation was performed using Miltenyi Adult Brain Dissociation Kit (Miltenyi, 130-107-677). MACS cell separation was performed using CD11b (Microglia) MicroBeads, mouse (Miltenyi, 130-093-634) and MS columns on OctoMACS™ cell separator (Miltenyi). Isolated microglia were seeded onto 0.01% PLL coated plates at a density of 10.000 cells per well in 384 well plate in DMEM containing 10% FBS,1% penicillin/streptomycin, and 2 mM L-glutamine.
LPS-induced neuroinflammation on MACS isolated 5xFAD microglia: On DIV7 HCQ at 0.25 μM, 2.5 μM and 25 μM was applied 1 hour before LPS stimulation (Sigma-Aldrich; L6529; 1 mg/ml stock in ddH2O, final concentration in well: 50 ng/ml (dilutions in medium)). Cells treated with vehicle, cells treated with LPS alone, as well as cells treated with LPS plus reference item (dexamethasone 10 μM, Sigma D4902) served as controls. After 24 h of stimulation, cell supernatants were collected for the cytokine measurement (V-PLEX Proinflammatory Panel 1 Mouse Kit, K15048D, Mesoscale).

The conditions of series [2]: in vivo; cited from earlier work.
For series [3] the following is noted: albino rats; cited from earlier work.
For another series, the system named is Primary cortical neurons. The series can be described thus: Cell death due to trophic factor withdrawal. The note with it: HCQ 0.25, 2.5 and 25 μM. It is filed as cell-based, mouse. Here is the method:
Cell death due to trophic factor withdrawal: Primary cortical neurons from E18 C57Bl/6 mice were prepared as previously described. On the day of preparation (DIV1), cortical neurons were seeded on poly-D-lysine pre-coated 96-well plates at a density of 3×10^4 cells per well. Every 4-6 days, a half medium exchange using full medium (Neurobasal, 2% B-27, 0.5 mM glutamine, 1% Penicillin-Streptomycin) was carried out. On DIV8, a full medium exchange to B-27 free medium (Neurobasal, 0.5 mM glutamine, 1% Penicillin-Streptomycin) was performed and HCQ (0.25 μM, 2.5 μM and 25 μM) was applied thereafter. […]
YO-PRO™-1 (Invitrogen; Y3603) assay was carried out to detect apoptotic cells in combination with Propidium iodide (PI; P4864 Sigma Aldrich) staining for necrotic cells. […] Plate was measured at the multimode-reader (Cytation 5, BioTek).
MTT solution was added to each well in a final concentration of 0.5 mg/mL. […] Optical density was measured with a Cytation 5 (Biotek) multimode reader at wavelength 570 nm. Values were calculated as percent of control values (vehicle control or lesion control).
The Lactate dehydrogenase (LDH) toxicity assay was carried out on the supernatants collected after treatment using the Cytotoxicity Detection Kit (Roche Diagnostics, Cat. No: 11 644 793 001). […] Absorbance was measured at 492 nm and 620 nm as reference wavelength with a Cytation 5 (Biotek) multimode reader. […]

The subject of series [4] is SH-SY5Y-hTau441(V337M/R406W) cells. The series can be described thus: Tau phosphorylation assay (Phospho(Thr231)/Total Tau). The following applies: 25 μM HCQ. It is filed as cell-based, human.
Description: Tau Phosphorylation: SH-SY5Y-hTau441(V337M/R406W) cells were maintained in culture medium (DMEM medium, 10% FCS, 1% NEAA, 1% L-Glutamine, 100 g/mL Gentamycin, 300 μg/mL Geneticin G-418) and differentiated with 10 μM retinoic acid (RA) for 5 days changing medium every 2 to 3 days. Prior to the treatment, cells were seeded onto 24-well plates at a cell density of 2×10^5 cells per well (DIV1). Drug compounds were applied on DIV2. After 24 h of incubation (DIV3), cells on 24-well plates were harvested in 60 μL RIPA-Buffer [50 mM Tris pH 7.4, 1% Nonidet P40, 0.25% Na-deoxy-cholate, 150 mM NaCl, 1 mM EDTA supplemented with freshly added 1 μM NaF, 0.2 mM Na-ortho-vanadate, 80 μM Glycerophosphate, protease (Calbiochem) and phosphatase (Sigma) inhibitor cocktail]. Protein concentration was determined by BCA assay (Pierce, ThermoFisher) and samples were adjusted to a uniform total protein concentration. Total Tau and phosphorylated Tau were determined by immunosorbent assay from Mesoscale Discovery (Phospho(Thr231)/Total Tau Kit K15121D, Mesoscale Discovery).
Tau phosphorylation: SH-SY5Y-hTau441(V337M/R406W) cells were maintained in culture medium (DMEM medium, 10% FCS, 1% NEAA, 1% L-Glutamine, 100 μg/mL Gentamycin, 300 μg/mL Geneticin G-418) and differentiated with 10 μM retinoic acid (RA) for 5 days changing medium every 2 to 3 days. Prior to the treatment, cells were seeded onto 24-well plates at a cell density of 2×10^5 cells per well (DIV1). HCQ (25 μM) was applied on DIV2. After 24 h of incubation (DIV3), cells on 24-well plates were harvested in 60 μL RIPA-Buffer [50 mM Tris pH 7.4, 1% Nonidet P40, 0.25% Na-deoxy-cholate, 150 mM NaCl, 1 mM EDTA supplemented with freshly added 1 μM NaF, 0.2 mM Na-ortho-vanadate, 80 μM Glycerophosphate, protease (Calbiochem) and phosphatase (Sigma) inhibitor cocktail]. Protein concentration was determined by BCA assay (Pierce, ThermoFisher) and samples were adjusted to a uniform total protein concentration. Total Tau and phosphorylated Tau were determined by immunosorbent assay from Mesoscale Discovery (Phospho(Thr231)/Total Tau Kit K15121D, Mesoscale Discovery).
Tau Phosphorylation: SH-SY5Y-hTau441(V337M/R406W) cells were maintained in culture medium [DMEM medium, 10% FCS, 1% nonessential amino acids (NEAA), 1% l-glutamine, gentamycin (100 μg/ml), and geneticin G-418 (300 μg/ml)] and differentiated with 10 μM retinoic acid for 5 days changing medium every 2 to 3 days. […] Protein concentration was determined by BCA assay (Pierce, Thermo Fisher Scientific, Waltham, MA), and samples were adjusted to a uniform total protein concentration. Total tau and phosphorylated tau were determined by immunosorbent assay from Mesoscale Discovery [Phospho(Thr231)/Total Tau Kit K15121D, Mesoscale Discovery, Meso Scale Diagnostics]. […]
For a further series, the target named is T1, STAT3 (Homo sapiens, UniProt P40763).
T1 construct: endogenous in cells; host or cells: HMC3 (ATCC CRL-3304), 1321N1 (Sigma-Aldrich), SK-N-BE(2)-M17 (ATCC CRL-2267)
The series can be described thus: Western blot of total and phosphorylated STAT3 in human cell lines. It is filed as cell-based. The following applies: 50 μM; for p-STAT3 (Tyr705 and Ser727) / total STAT3: 48 hours. Here is the method: Cell and neuron cultures: Immortalized human microglia HMC3 cells (ATCC CRL-3304) and astrocytoma 1321N1 cells (Sigma-Aldrich; derived from human brain astrocytoma; Macintyre et al., 1972) were cultured in Eagle's minimum essential medium (EMEM) supplemented with 10% fetal bovine serum (FBS, Gibco) and 1% antibiotics and antimycotics (Gibco). Neuroblastoma SK-N-BE(2)-M17 (M17) (ATCC CRL-2267) cells were cultured in a 1:1 mixture of EMEM and F12 media, supplemented with 10% FBS plus 1% antibiotics and antimycotics.
HCQ treatment: Treatment with hydroxychloroquine Sulfate (Selleckchem, Catalog No.S4430) was performed at 50 μM concentration.
Western blot analysis: Protein extracts were obtained by lysing cells with a denaturing buffer containing 2% sodium dodecyl sulfate (SDS) (Sigma-Aldrich) in 50 mM HEPES. After boiling and sonication, whole-cell protein extracts were size-fractionated through polyacrylamide gels and transferred to nitrocellulose membranes (Bio-Rad). Membranes were blocked with 5% non-fat dry milk and immunoblotted. Primary antibodies were employed that recognized total STAT3 (124H6) (Cell Signaling, 9139T), phosphorylated STAT3 (Tyr705) (D3A7) XP® (Cell Signaling, 9145S), and phosphorylated STAT3 (Ser727) (Cell Signaling, 94994S).
Statistical analysis: Digitized images were obtained, processed, and quantified with ImageLab version 6.1 (BioRad Laboratories).
For orientation: Immunoblotting shows a protein as a band on a membrane.

T1 sequence (P40763 whole entry): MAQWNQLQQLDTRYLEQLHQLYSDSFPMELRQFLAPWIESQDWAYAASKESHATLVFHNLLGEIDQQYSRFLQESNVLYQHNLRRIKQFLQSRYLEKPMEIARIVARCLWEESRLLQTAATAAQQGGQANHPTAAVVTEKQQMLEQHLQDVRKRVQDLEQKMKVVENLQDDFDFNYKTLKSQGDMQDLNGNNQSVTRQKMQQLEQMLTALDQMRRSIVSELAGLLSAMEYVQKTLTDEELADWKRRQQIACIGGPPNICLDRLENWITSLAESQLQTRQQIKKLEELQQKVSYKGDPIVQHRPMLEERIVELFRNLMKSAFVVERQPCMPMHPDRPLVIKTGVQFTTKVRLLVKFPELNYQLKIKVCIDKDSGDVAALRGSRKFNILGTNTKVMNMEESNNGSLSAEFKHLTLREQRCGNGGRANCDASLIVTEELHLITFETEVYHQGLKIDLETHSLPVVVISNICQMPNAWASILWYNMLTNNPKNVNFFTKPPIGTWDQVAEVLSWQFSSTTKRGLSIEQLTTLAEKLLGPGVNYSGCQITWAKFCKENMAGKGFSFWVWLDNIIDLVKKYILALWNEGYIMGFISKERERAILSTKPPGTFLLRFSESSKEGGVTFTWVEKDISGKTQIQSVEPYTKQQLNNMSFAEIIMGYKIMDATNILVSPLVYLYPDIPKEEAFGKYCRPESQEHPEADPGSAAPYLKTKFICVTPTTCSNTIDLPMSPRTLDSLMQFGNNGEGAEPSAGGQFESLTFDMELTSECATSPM

As for `CCN(CCO)CCCC(C)Nc1ccnc2cc(Cl)ccc12` (stereo not drawn) [HCQ, hydroxychloroquine], in series [1], the “release of IL1-b” value is reported as “lowered”, the “release of IL-10” value is “lowered” and the “release of IL-12p70” value is “lowered”. Further, the “release of IL6” value in series [1] (HCQ 0.25-25 μM) is “lowered”. Besides, in series [2], the “serious side effects of retinopathy and cardiac toxicity” value is given as “relatively rare”. Further, in series [3], the Kp brain/plasma was 4-31. The “cell death in response to trophic factor withdrawal” value in the series with Primary cortical neurons is listed as “No effects”. Moreover, in series [4], the “phosphorylated tau (ptau231)” value is “reduced” and the total tau result is listed as “reduced”. On STAT3, the cell viability entry is listed as “did not have adverse effects on cell viability”. On STAT3 (1321N1 cells), the “p-STAT3 (Tyr705 and Ser727)” value is listed as “reduced”; the “total STAT3” value is recorded as “without alteration”. Moreover, on STAT3 (HMC3 cells), the “p-STAT3 (Tyr705 and Ser727)” value is “reduced”; the “total STAT3” value is recorded as “without alteration”. Also, the “phosphorylated STAT3 and total STAT3” value on STAT3 (SK-N-BE(2)-M17 cells) is “non-significant”.
